Experimental data from PubChem BioAssay (NCI).
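1) Cells in 96-well plates. 2) Compound, 48 h, 5 concentrations. 3) Linear interpolation between surrounding doses. 4) Unreached endpoint = highest concentration. TGI marks complete inhibition of growth.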

Tests used:
Assay in all cases: growth of human tumour cells (NCI), 48 h
[1] = test system: UACC-62 melanoma
[2] = test system: HT29 colon
[3] = test system: CCRF-CEM leukemia
[4] = test system: SK-MEL-28 melanoma
[5] = test system: ACHN renal
[6] = test system: HOP-62 NSCLC
[7] = test system: MALME-3M melanoma
[8] = test system: SN12C renal
[9] = test system: SK-OV-3 ovarian

Row | Compound | TGI [1] [µM] | TGI [2] [µM] | TGI [3] [µM] | TGI [4] [µM] | TGI [5] [µM] | TGI [6] [µM] | TGI [7] [µM] | TGI [8] [µM] | TGI [9] [µM]
1 | O=C1C(c2ccccc2)=C(c2ccccc2)C(c2ccc(CCCCCCc3ccc(C4=C(c5ccccc5)C(=O)C(c5ccccc5)=C4c4ccccc4)cc3)cc2)=C1c1ccccc1 | > 100 | > 100 | > 100 | > 100 | > 100 | > 100 | > 100 | > 100 | –
2 | O=c1nc2cc(-c3ccccc3)[nH]c2nn1-c1c(Cl)cc(Cl)cc1Cl | 35.6 | 88.7 | 76.2 | > 100 | – | 56.5 | 65.7 | 83.7 | 92.4
3 | COc1ccc(C(=O)C=C2NCCN2)cc1 | > 100 | > 100 | > 100 | > 100 | > 100 | > 100 | > 100 | > 100 | > 100
4 | O=[N+]([O-])c1ccc(Cl)c(C2SCc3nc4ccccc4n32)c1 (stereo not drawn) | > 100 | > 100 | > 100 | > 100 | > 100 | – | > 100 | > 100 | 88
5 | COc1ccc(O)c2c1C(=O)CCCC2=O | > 100 | > 100 | > 100 | > 100 | > 100 | > 100 | > 100 | > 100 | > 100
6 | COc1cc(C2C(C(=O)Nc3ccccc3)=C(C)NC(C)=C2C(=O)Nc2ccccc2)ccc1O | – | 33.8 | – | > 100 | > 100 | > 100 | > 100 | > 100 | –
7 | CN(O)C(=O)Cc1ccccc1 | > 100 | > 100 | > 100 | > 100 | > 100 | > 100 | > 100 | > 100 | > 100
8 | CCc1cccc(C)c1NC(=O)NS(=O)(=O)c1ccc(C)cc1 | > 100 | – | > 100 | > 100 | > 100 | > 100 | > 100 | > 100 | > 100
9 | COc1ccc(NC(=O)C(=O)C2NC(=S)NC2=O)c(OC)c1 (stereo not drawn) | > 100 | > 100 | – | > 100 | > 100 | > 100 | > 100 | > 100 | > 100
10 | O=[N+]([O-])c1ccccc1C1N2CCCCC2[C@@H]2c3[nH]c4ccccc4c3CCN12 (stereo partly drawn) | 14.4 | 20.8 | 30.4 | 26.6 | 31.3 | 29.2 | – | 26.6 | 54.3
11 | CC1=C2C(c3ccccc3)(c3ccccc3)C3C=CC2(C=N3)N(C(=O)NC2CCCCC2)C1=O (stereo not drawn) | 33.4 | – | 36.1 | 30.6 | 33.8 | 31.7 | 31.6 | 31.7 | 44.3
12 | COc1cccc(C2C(C(=O)Nc3cc(=O)n(C)c(=O)n3C)=C(C)NC(C)=C2C(=O)Nc2cc(=O)n(C)c(=O)n2C)c1O | – | > 100 | > 100 | > 100 | > 100 | > 100 | > 100 | > 100 | > 100
13 | Cc1ccc(Nc2ccc(Nc3ccc(C)cc3)c3c2C(=O)c2c(O)ccc(O)c2C3=O)cc1 | > 100 | – | > 100 | > 100 | > 100 | > 100 | > 100 | > 100 | > 100
14 | COc1cc2c(cc1C)n(O)c(C)c(C(=O)C/C(=N/NC(=O)C[N+](C)(C)C)C(=O)Nc1cccc(Cl)c1C)[n+]2=O | > 100 | > 100 | > 100 | > 100 | > 100 | > 100 | > 100 | > 100 | –
15 | CCC1(CN(C)C)CC/C(=C\c2ccc3c(c2)OCO3)C1=O (stereo not drawn) | > 100 | > 100 | > 100 | > 100 | > 100 | > 100 | > 100 | > 100 | –
16 | CCC1(OC(C)=O)C(=O)OCc2c1cc1n(c2=O)Cc2cc3ccccc3nc2-1 (stereo not drawn) | – | > 100 | 1.93 | > 100 | 12.1 | 9.81 | > 100 | > 91.9 | > 69.6
17 | COC1=C(OC)CCC(/C(C#N)=C/c2ccc(OC)c(OC)c2)=C1 | > 100 | > 100 | > 100 | > 100 | > 100 | 86.9 | – | > 100 | 91.3
18 | Cc1ccc(NC(=O)C(=O)Cc2nc3ccccc3o2)c(C)c1 | > 100 | > 100 | – | > 100 | > 100 | > 100 | > 100 | > 100 | > 100
19 | COc1ccccc1/C=C\c1cc(OC)c(OC)c(OC)c1 | > 100 | > 100 | > 100 | > 100 | > 100 | > 100 | > 100 | > 100 | –
